This is an account of results in ChEMBL document CHEMBL4421730, “Synthetic compounds and derivatives as modulators of smoking or nicotine ingestion and lung cancer” (2013).

Molecules are shown by their SMILES. Activity calls are given as the source filed them. No cut-off for these calls is given here.

The target in data set [1] is Acetylcholine-binding protein (Lymnaea stagnalis) (UniProt P58154). Nature of the data set: Binding affinity to Lymnaea stagnalis nicotinic acetylcholine receptor by fluorescence based assay. In kind it is single protein.
The target in data set [2] is T1, Cytochrome P450 2A6 (Homo sapiens, UniProt P11509).
T1 sequence (P11509 whole entry): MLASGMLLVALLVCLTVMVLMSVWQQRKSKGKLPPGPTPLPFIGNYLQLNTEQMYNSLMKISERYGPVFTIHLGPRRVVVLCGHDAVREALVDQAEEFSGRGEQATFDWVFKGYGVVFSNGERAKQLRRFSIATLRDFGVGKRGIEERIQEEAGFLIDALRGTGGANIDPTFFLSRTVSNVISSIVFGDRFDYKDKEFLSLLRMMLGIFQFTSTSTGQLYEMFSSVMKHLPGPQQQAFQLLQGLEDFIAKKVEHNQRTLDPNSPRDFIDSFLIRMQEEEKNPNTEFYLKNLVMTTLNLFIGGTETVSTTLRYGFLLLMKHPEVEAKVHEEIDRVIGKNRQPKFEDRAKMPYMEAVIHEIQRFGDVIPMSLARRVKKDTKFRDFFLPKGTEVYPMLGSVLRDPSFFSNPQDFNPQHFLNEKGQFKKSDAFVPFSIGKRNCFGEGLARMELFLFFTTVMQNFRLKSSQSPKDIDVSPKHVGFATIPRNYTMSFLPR
Nature of the data set: Binding affinity to synthetic N-terminal truncated CYP2A6 (unknown origin) assessed as occurrence of type-1 binding by spectral interaction analysis.

Data set [3] concerns the target Acetylcholine-binding protein (Lymnaea stagnalis) (UniProt P58154). The data set is described as follows: Displacement of [125I]bungarotoxin from Lymnaea stagnalis nicotinic acetylcholine receptor assessed as residual radioligand binding relative to control. On the technique in general: Displacement assays read how much labelled ligand stays bound in the presence of the test substance.

Data set [4] concerns the target T2, CYP2A6 (Homo sapiens, UniProt P11509).
T2 sequence (P11509 whole entry): T1 sequence (P11509 whole entry)
Nature of the data set: (§1) Binding affinity to synthetic N-terminal truncated CYP2A6 (unknown origin) assessed as effect on type-1 spectral shift lambda(min) by measuring displacement of coumarin at 100 uM preincubated with […] coumarin by spectral interaction analysis. Conditions: synthetic N-terminal truncated CYP2A6, probe coumarin, […].

The target of data set [5] is T2, CYP2A6. Nature of the data set: (§2) Binding affinity to synthetic N-terminal truncated CYP2A6 (unknown origin) assessed as effect on type-1 spectral shift lambda(max) by measuring displacement of coumarin at 100 uM preincubated with […] coumarin by spectral interaction analysis. Conditions: synthetic N-terminal truncated CYP2A6, probe coumarin, […].
Data set [6] concerns the target T1, Cytochrome P450 2A6. Nature of the data set: Inhibition of human CYP2A6 expressed in insect cell membranes assessed as reduction in enzyme-mediated coumarin 7-hydroxylation at 400 uM in presence of glucose-6-phosphate, glucose-6-phosphate dehydrogenase and NADPH-generating system by fluorometry.
Data set [7] concerns Rattus norvegicus. Nature of the data set: Reduction of nicotine self-administration in nicotine-addicted Wistar rat at 16 mg/kg dosed on day 50 following self-administration of nicotine across 23 hrs period each day for 49 days and measured on day 51 and 52 relative to control. Format: ADME, organism-based. Conditions: in vivo.
Data set [8] deals with Rattus norvegicus. The data set is described as follows: Reduction of nicotine self-administration in nicotine-addicted Wistar rat at 15 mg/kg dosed on day 50 following self-administration of nicotine across 23 hrs period each day for 49 days relative to control. Format: ADME, organism-based. On the set-up: scale not given: the % may be the effect or the level left. To be noted: in vivo.

Data set [9] deals with Rattus norvegicus. The data set is described as follows: Reduction of nicotine self-administration in nicotine-addicted Wistar rat at 15 mg/kg dosed on day 50 following self-administration of nicotine across 23 hrs period each day for 49 days and measured on day 51 and 52 relative to control. Conditions: in vivo. In kind it is ADME, organism-based.
Data set [10] has as its target T1, Cytochrome P450 2A6. Described as §1. To be noted: 100 µM.
In data set [11] the target is T1, Cytochrome P450 2A6. The description is as §2. Conditions: 100 µM.

Sequence of Acetylcholine-binding protein (Lymnaea stagnalis) (P58154 whole entry): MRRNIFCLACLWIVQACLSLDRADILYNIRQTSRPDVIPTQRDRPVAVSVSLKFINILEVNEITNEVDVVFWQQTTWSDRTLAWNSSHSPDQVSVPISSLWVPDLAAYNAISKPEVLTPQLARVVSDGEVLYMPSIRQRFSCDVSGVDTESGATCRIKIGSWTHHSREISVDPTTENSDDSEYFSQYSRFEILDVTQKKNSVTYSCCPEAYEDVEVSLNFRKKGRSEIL

Consider `c1cncc(-c2cccs2)c1`, for which the outcome in [1] was Active. For the molecule `OCC1CCC(c2cccnc2)O1` (configuration not stated), the result in data set [1] was inactive. Turning to `Cc1csc(-c2cccnc2)n1`, in data set [2], the result was Active.

Turning to `NCC1CCC(c2cccnc2)O1` (mixture of isomers), the outcome in data set [1] was Active. The Activity in data set [3] came out at 30%. The inhibition is the percentage by which the read-out fell short of the control. For `SCc1ccc(-c2cccnc2)o1`, the inhibition at 100 µM in data set [4] and in data set [5] was 100% throughout. The Activity entry in data set [2] is reported as “Not Active”. In the case of `O=Cc1ccc(-c2cccnc2)o1`, the inhibition at 100 µM in data set [4] and in data set [5] was 100% throughout. The Activity entry in [2] is given as “Not Active”. With `CN(C)CC#Cc1cccnc1`, the Activity result in data set [2] is “Not Active”. On the same count and under the same terms, the result for `Cc1ccsc1-c1ccc(F)nc1` reads “Active”. On to `c1cncc(-n2cnnn2)c1`, for which the “inhibition (INH)” value in data set [6] was “Active”. As to `N[C@@H]1C[C@H]1c1ccccc1.N[C@H]1C[C@@H]1c1ccccc1`, the outcome in data set [1] was Active. Consider `Cl.Cl.NCc1ccc(-c2cccnc2)o1`, for which the Activity entry in [7] is reported as “Toxic”. On to `Cc1cscc1-c1ccccc1`, for which, in data set [2], the outcome was Active. As to `c1ccc(-c2ccsc2)cc1`, in [2], the result was Active. For the molecule `Cc1ccsc1-c1cccnc1`, the result in [2] was Active. `Cc1cscc1-c1cccnc1`: the result in data set [1] was Active. Turning to `NC[C@@H]1CC[C@@H](c2cccnc2)O1` (relative stereo), the result in data set [1] was Active. Besides, the Activity in data set [3] was found to be 25%. For the molecule `Cl.Cl.c1cncc(-c2c[nH]cn2)c1`, the result in data set [1] was inactive. Further, the Activity in data set [8] was 40%; in data set [9], “Toxic”. `CCC1CCC(c2cccnc2)O1` (configuration not stated): the outcome in data set [1] was inactive. For the molecule `BrCC1CCC(c2cccnc2)O1` (configuration not stated), the result in [1] was Active. In the case of `CC(=O)SCc1ccc(-c2cccnc2)o1`, the Activity result in data set [10], in [2] and in [11] was “Not Active” throughout. On to `c1cncc(-c2cccnc2)c1`, for which the result in data set [1] was Active. For the molecule `Cc1cn(-c2cccnc2)cn1`, the outcome in data set [1] was Active.
